System: not given
Assay: not given
Settings: 3 month injectable product Depo Provera; cited from earlier work
For `CC(=O)O[C@]1(C(C)=O)CC[C@H]2[C@@H]3C[C@H](C)C4=CC(=O)CC[C@]4(C)[C@H]3CC[C@@]21C` [MPA, medroxyprogesterone acetate, reference compound], the undesirable effects is given as “increase of insulin levels, reduction of bone mass density, weight gain and enhanced risks for HIV infections”.

System: cycling rats of Sprague-Dawley strain
Assay: Estrous suppression assay (long term injectable contraceptive), anti-ovulatory activity in female rat model
Type: in vivo
Settings: 2 mg/rat, single s.c. injection of milled suspension, adult female rats, vaginal smear until cycling re-established
Method: A stainless steel grinding bowl with a lid and seal along with three 10 mm stainless steel balls were used to formulate suspensions for injection. The compounds were weighed and added to the grinding bowl and steel balls. 1.5 mL of formulation vehicle was added to the grinding bowl, via pipette. The milling conditions used as listed: 20 minutes, 20 Hz. After milling, the suspension was transferred to a volumetric flask. Formulation vehicle was used to dilute the milled suspension to produce the desired injection dose.
Protocol: Testing Long Term Injectable Contraceptive
Adult female rats (180-200 g body weight) were used for the study (adapted over 1 week before starting the study).
For each compound, two doses were tested (2 and 4 mg/rat).
Long acting properties of each preparation had been determined in an estrous suppression assay using virgin, mature (180-200 g) cycling rats of Sprague-Dawley strain. Upon receipt the animals were smeared daily (procedure described as below) for cyclicity and those who were showing two consecutive cycles were used for the study. Each animal was injected subcutaneously (s.c) with 0.5 ml of the test preparation (in the vehicle as described above) on the same day regardless of the stage of the cycle. Each compound was initially tested in 6 rats. Everyday excluding weekend, smears were taken starting on the day after injection and continued until such time that cornification of vaginal epithelium was observed and cycling was re-established (Bialy G, Blye R P, Enever R P, Naqvi R H, Lindberg M C. Long-acting contraceptive agents: structure activity relationships in a series of norethisterone and levonorgestrel esters. Steroids 1983, v 41, p 361).
Epithelium and lamina propria of the vagina undergo characteristic changes during the cycle. This cyclical changes was used in rodents to stage cycle diagnosis (1). During the cycle, it comes to a complete replacement of the epithelium. In order to determine the stage of the cycle, vaginal solution/mucus was collected as follows. The rat was fixed with one hand. With the other hand, a small moistened cotton swab (2-3 mm diameter) was inserted into the vagina and removed by gently rotating cell material. This was done with caution, since excessive irritation could induce a pseudopregnancy stage in animals. A drop of water on a slide was applied and dabbed the cotton swab in it. The smear was assessed under the microscope (Nikon Eclipse Ti, Magnification: 10×0.25) (Nelson J F, Felicio L S, Randall P K, Sims C, Finch C E. A longitudinal study of estrous cyclicity in aging C57BL/6J mice: I. Cycle frequency, length and vaginal cytology. Biol Reprod. 1982 September; 27(2):327-39).
The smear of diestrous is characterized by some neutrophils and a few small degenerated, irregularly shaped epithelial cells.
The microscopic image of the smear contains a moderate number of epithelial cells with large nuclei, which are usually visible as cell clusters.
The lamina propria leukocytes migrate into the epithelium. The smear is characterized by many big horny epithelial cells.
In metestrous stage, masses of polymorphonuclear cells with some cornified epithelial cells in the smear will become visible.
For `C#C[C@]1(OC(=O)COc2cccc(OC)c2)CCC2C3CCC4=CC(=O)CCC4C3CC[C@@]21CC` (some centres unmarked) [EC636], the “Rat Anti-ovulatory Activity Days +/− 2” value was 13 days. For `C#C[C@]1(OC(=O)COc2ccc(F)cc2)CCC2C3CCC4=CC(=O)CCC4C3CC[C@@]21CC` (some centres unmarked) [EC640], the “Rat Anti-ovulatory Activity Days +/− 2” value was 31 days. With `C#C[C@]1(OC(=O)COc2cccc(-c3ccccc3)c2)CCC2C3CCC4=CC(=O)CCC4C3CC[C@@]21CC` (some centres unmarked) [EC654] the “Rat Anti-ovulatory Activity Days +/− 2” value was 8 days. In the case of `C#C[C@]1(OC(=O)COc2ccc3c(c2)OCO3)CCC2C3CCC4=CC(=O)CCC4C3CC[C@@]21CC` (some centres unmarked) [EC644], the “Rat Anti-ovulatory Activity Days +/− 2” value is reported as 20 days. With `C#C[C@]1(OC(=O)COc2ccc(S(N)(=O)=O)c(F)c2)CCC2C3CCC4=CC(=O)CCC4C3CC[C@@]21CC` (some centres unmarked) [EC653] the “Rat Anti-ovulatory Activity Days +/− 2” value was 15 days. For `C[C@H](O)C(=O)[C@@]1(C)CCC2C3CCC4=CC(=O)CCC4=C3CC[C@@]21C` (some centres unmarked) [EC213 TMG, reference compound], the “Rat Anti-ovulatory Activity Days +/− 2” value was 19 days. With `C#C[C@]1(OC(=O)COc2cccc(S(N)(=O)=O)c2)CCC2C3CCC4=CC(=O)CCC4C3CC[C@@]21CC` (some centres unmarked) [EC601] the “Rat Anti-ovulatory Activity Days +/− 2” value was 10 days. For `C#C[C@]1(OC(=O)COc2ccc(C#N)cc2)CCC2C3CCC4=CC(=O)CCC4C3CC[C@@]21CC` (some centres unmarked) [EC658], the “Rat Anti-ovulatory Activity Days +/− 2” value was 29 days. In the case of `C#C[C@]1(OC(=O)COc2ccc(S(N)(=O)=O)cc2C)CCC2C3CCC4=CC(=O)CCC4C3CC[C@@]21CC` (some centres unmarked) [EC649], the “Rat Anti-ovulatory Activity Days +/− 2” value is reported as 18.5 days. With `C#C[C@]1(OC(=O)COc2ccccc2OC)CCC2C3CCC4=CC(=O)CCC4C3CC[C@@]21CC` (some centres unmarked) [EC635] the “Rat Anti-ovulatory Activity Days +/− 2” value was 13 days. In the case of `C#C[C@]1(OC(=O)COc2ccc(S(N)(=O)=O)c(Cl)c2)CCC2C3CCC4=CC(=O)CCC4C3CC[C@@]21CC` (some centres unmarked) [EC650], the “Rat Anti-ovulatory Activity Days +/− 2” value is reported as 18.5 days. For `C#C[C@]1(OC(=O)COc2cccc(F)c2)CCC2C3CCC4=CC(=O)CCC4C3CC[C@@]21CC` (some centres unmarked) [EC639], the “Rat Anti-ovulatory Activity Days +/− 2” value was 31 days. In the case of `C#C[C@]1(OC(=O)COc2cccnc2)CCC2C3CCC4=CC(=O)CCC4C3CC[C@@]21CC` (some centres unmarked) [EC641], the “Rat Anti-ovulatory Activity Days +/− 2” value is reported as 23 days. With `C#C[C@]1(OC(=O)CCc2ccccc2OC)CCC2C3CCC4=CC(=O)CCC4C3CC[C@@]21CC` (some centres unmarked) [EC643] the “Rat Anti-ovulatory Activity Days +/− 2” value was 3 days. With `C#C[C@]1(OC(=O)COc2cc(C)on2)CCC2C3CCC4=CC(=O)CCC4C3CC[C@@]21CC` (some centres unmarked) [EC652] the “Rat Anti-ovulatory Activity Days +/− 2” value was 27 days. With `C#C[C@]1(OC(=O)COc2ccc(Cl)cc2)CCC2C3CCC4=CC(=O)CCC4C3CC[C@@]21CC` (some centres unmarked) [EC631] the “Rat Anti-ovulatory Activity Days +/− 2” value was 33.5 days. In the case of `C#C[C@]1(OC(=O)COc2ccc(S(N)(=O)=O)cc2Cl)CCC2C3CCC4=CC(=O)CCC4C3CC[C@@]21CC` (some centres unmarked) [EC648], the “Rat Anti-ovulatory Activity Days +/− 2” value is reported as 18 days. With `C#C[C@]1(OC(=O)COc2ccccc2Cl)CCC2C3CCC4=CC(=O)CCC4C3CC[C@@]21CC` (some centres unmarked) [EC633] the “Rat Anti-ovulatory Activity Days +/− 2” value was 16.3 days. With `C#C[C@]1(OC(=O)COc2ccc(S(N)(=O)=O)cc2)CCC2C3CCC4=CC(=O)CCC4C3CC[C@@]21CC` (some centres unmarked) [EC624] the “Rat Anti-ovulatory Activity Days +/− 2” value was 20.5 days. With `C#C[C@]1(OC(=O)CCC)CCC2C3CCC4=CC(=O)CCC4C3CC[C@@]21CC` (some centres unmarked) [EC600 LB, Levonorgestrel butanoate, reference compound] the “Rat Anti-ovulatory Activity Days +/− 2” value was 33 days. With `C#C[C@]1(OC(=O)COc2ccccc2F)CCC2C3CCC4=CC(=O)CCC4C3CC[C@@]21CC` (some centres unmarked) [EC642] the “Rat Anti-ovulatory Activity Days +/− 2” value was 41 days. In the case of `C#C[C@]1(OC(=O)COc2ccc(S(C)(=O)=O)cc2)CCC2C3CCC4=CC(=O)CCC4C3CC[C@@]21CC` (some centres unmarked) [EC645], the “Rat Anti-ovulatory Activity Days +/− 2” value is reported as 31 days. For `CC(=O)O[C@]1(C(C)=O)CC[C@H]2[C@@H]3C[C@H](C)C4=CC(=O)CC[C@]4(C)[C@H]3CC[C@@]21C` [MPA, medroxyprogesterone acetate, reference compound], the “Rat Anti-ovulatory Activity Days +/− 2” value was 22 days. In the case of `C#C[C@]1(OC(=O)COc2ccc(-c3ccccc3)cc2)CCC2C3CCC4=CC(=O)CCC4C3CC[C@@]21CC` (some centres unmarked) [EC655], the “Rat Anti-ovulatory Activity Days +/− 2” value is reported as 37 days. With `C#C[C@]1(OC(=O)[C@H](C)Oc2ccccc2)CCC2C3CCC4=CC(=O)CCC4C3CC[C@@]21CC` (some centres unmarked) [EC638] the “Rat Anti-ovulatory Activity Days +/− 2” value was 8 days. In the case of `C#C[C@]1(OC(=O)COc2ccc(OC)cc2)CCC2C3CCC4=CC(=O)CCC4C3CC[C@@]21CC` (some centres unmarked) [EC634], the “Rat Anti-ovulatory Activity Days +/− 2” value is reported as 30 days. With `C#C[C@]1(OC(=O)COc2ccccc2)CCC2C3CCC4=CC(=O)CCC4C3C(=C)C[C@@]21CC` (some centres unmarked) [EC651] the “Rat Anti-ovulatory Activity Days +/− 2” value was 52 days. For `C#C[C@]1(OC(=O)COc2ccccc2C)CCC2C3CCC4=CC(=O)CCC4C3CC[C@@]21CC` (some centres unmarked) [EC632], the “Rat Anti-ovulatory Activity Days +/− 2” value was 8.5 days. For `C#C[C@]1(OC(=O)COc2ccccc2)CCC2C3CCC4=CC(=O)CCC4C3CC[C@@]21CC` (some centres unmarked) [EC625], the “Rat Anti-ovulatory Activity Days +/− 2” value was 43 days. In the case of `C#C[C@]1(OC(=O)CNc2ccccc2)CCC2C3CCC4=CC(=O)CCC4C3CC[C@@]21CC` (some centres unmarked) [EC646], the “Rat Anti-ovulatory Activity Days +/− 2” value is reported as 13 days. In the case of `C#C[C@]1(OC(=O)CSc2ccccc2)CCC2C3CCC4=CC(=O)CCC4C3CC[C@@]21CC` (some centres unmarked) [EC647], the “Rat Anti-ovulatory Activity Days +/− 2” value is reported as 20 days.

Same assay, conditions: 4 mg/rat, single s.c. injection of milled suspension, adult female rats, vaginal smear until cycling re-established
For `C#C[C@]1(OC(=O)CCc2ccccc2)CCC2C3CCC4=CC(=O)CCC4C3CC[C@@]21CC` (some centres unmarked) [EC626], the “Rat Anti-ovulatory Activity Days +/− 2” value was 20 days. With `C#C[C@]1(OC(=O)COc2cccc(Cl)c2)CCC2C3CCC4=CC(=O)CCC4C3CC[C@@]21CC` (some centres unmarked) [EC630] the “Rat Anti-ovulatory Activity Days +/− 2” value was 46.5 days. With `C#C[C@]1(OC(=O)COc2cccc(S(N)(=O)=O)c2)CCC2C3CCC4=CC(=O)CCC4C3CC[C@@]21CC` (some centres unmarked) [EC601] the “Rat Anti-ovulatory Activity Days +/− 2” value was 34 days. With `C#C[C@]1(OC(=O)COc2ccc(C)cc2)CCC2C3CCC4=CC(=O)CCC4C3CC[C@@]21CC` (some centres unmarked) [EC629] the “Rat Anti-ovulatory Activity Days +/− 2” value was 44.8 days. With `CC(=O)O[C@]1(C(C)=O)CC[C@H]2[C@@H]3C[C@H](C)C4=CC(=O)CC[C@]4(C)[C@H]3CC[C@@]21C` [MPA, medroxyprogesterone acetate, reference compound] the “Rat Anti-ovulatory Activity Days +/− 2” value was 40 days. For `C#C[C@]1(OC(=O)COc2ccccc2)CCC2C3CCC4=CC(=O)CCC4C3CC[C@@]21CC` (some centres unmarked) [EC625], the “Rat Anti-ovulatory Activity Days +/− 2” value was 69 days. With `C#C[C@]1(OC(=O)/C=C/c2ccccc2)CCC2C3CCC4=CC(=O)CCC4C3CC[C@@]21CC` (some centres unmarked) [EC627] the “Rat Anti-ovulatory Activity Days +/− 2” value was 6 days. With `C#C[C@]1(OC(=O)COc2cccc(C)c2)CCC2C3CCC4=CC(=O)CCC4C3CC[C@@]21CC` (some centres unmarked) [EC628] the “Rat Anti-ovulatory Activity Days +/− 2” value was 36 days.

System: not given
Assay: not given
Settings: cited from earlier work
For `C#C[C@]1(OC(=O)CCC)CCC2C3CCC4=CC(=O)CCC4C3CC[C@@]21CC` (some centres unmarked) [EC600 LB, Levonorgestrel butanoate, reference compound], the “contraceptive effect in the clinic” value is given as “failed in the clinic to reach a contraceptive effect for up to 6 month”.
